Columns and labels:
Assay in all cases: radiometric filter-binding kinase assay
[1] = target: SIK3 (human) (UniProt Q9Y2K2)
[2] = target: PRKAA1 PRKAB2 PRKAG1 (human) (UniProt O43741+Q13131+P54619)
[3] = target: PTK6 (human) (UniProt Q13882)
[4] = target: TESK1 (human) (UniProt Q15569)
[5] = target: TEK (human) (UniProt Q02763)
[6] = target: IRAK1 (human) (UniProt P51617)
[7] = system: PRKAA1 or PRKAA2 (rat); settings: compound 10.0 µM; accession and sequence are those of the human protein
[8] = target: SIK2 (human) (UniProt Q9H0K1)
[9] = target: TTBK1 (human) (UniProt Q5TCY1)
[10] = target: TTBK2 (human) (UniProt Q6IQ55)
TTBK2 (human), sequence (Q6IQ55 whole entry, looked up): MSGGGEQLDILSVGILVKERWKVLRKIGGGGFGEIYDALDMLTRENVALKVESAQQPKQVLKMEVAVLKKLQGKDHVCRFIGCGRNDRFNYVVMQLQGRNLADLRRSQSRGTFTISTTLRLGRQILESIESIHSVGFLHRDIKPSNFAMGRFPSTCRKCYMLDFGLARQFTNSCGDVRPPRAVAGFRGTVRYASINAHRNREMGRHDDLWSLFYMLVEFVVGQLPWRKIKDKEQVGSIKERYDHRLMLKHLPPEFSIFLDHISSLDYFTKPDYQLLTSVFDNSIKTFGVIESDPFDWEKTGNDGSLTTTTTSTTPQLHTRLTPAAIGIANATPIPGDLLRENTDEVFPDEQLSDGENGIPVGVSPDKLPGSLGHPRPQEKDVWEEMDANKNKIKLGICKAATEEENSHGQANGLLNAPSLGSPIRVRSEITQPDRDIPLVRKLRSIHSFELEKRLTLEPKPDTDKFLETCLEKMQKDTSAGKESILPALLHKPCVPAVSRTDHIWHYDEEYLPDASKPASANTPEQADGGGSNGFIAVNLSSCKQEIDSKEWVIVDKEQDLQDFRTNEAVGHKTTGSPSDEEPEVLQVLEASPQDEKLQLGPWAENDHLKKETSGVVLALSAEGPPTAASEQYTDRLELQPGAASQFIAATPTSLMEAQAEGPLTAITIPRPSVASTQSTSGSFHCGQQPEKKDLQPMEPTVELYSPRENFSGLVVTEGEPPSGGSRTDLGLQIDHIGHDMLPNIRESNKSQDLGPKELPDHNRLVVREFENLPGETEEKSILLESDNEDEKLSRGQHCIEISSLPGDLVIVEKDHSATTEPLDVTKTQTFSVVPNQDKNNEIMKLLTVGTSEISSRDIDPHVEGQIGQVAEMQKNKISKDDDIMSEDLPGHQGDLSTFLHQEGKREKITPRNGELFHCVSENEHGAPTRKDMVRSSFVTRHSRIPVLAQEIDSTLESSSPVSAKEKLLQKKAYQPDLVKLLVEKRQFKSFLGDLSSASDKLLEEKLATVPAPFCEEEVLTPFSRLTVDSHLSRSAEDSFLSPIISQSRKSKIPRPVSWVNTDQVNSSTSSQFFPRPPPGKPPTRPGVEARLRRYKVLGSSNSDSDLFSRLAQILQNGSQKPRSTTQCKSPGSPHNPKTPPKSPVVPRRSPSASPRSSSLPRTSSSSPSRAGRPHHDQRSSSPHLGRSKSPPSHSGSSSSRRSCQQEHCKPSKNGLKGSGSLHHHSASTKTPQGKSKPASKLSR

[11] = target: PDGFRA (human) (UniProt P16234)
PDGFRA (human), sequence (P16234 whole entry, looked up): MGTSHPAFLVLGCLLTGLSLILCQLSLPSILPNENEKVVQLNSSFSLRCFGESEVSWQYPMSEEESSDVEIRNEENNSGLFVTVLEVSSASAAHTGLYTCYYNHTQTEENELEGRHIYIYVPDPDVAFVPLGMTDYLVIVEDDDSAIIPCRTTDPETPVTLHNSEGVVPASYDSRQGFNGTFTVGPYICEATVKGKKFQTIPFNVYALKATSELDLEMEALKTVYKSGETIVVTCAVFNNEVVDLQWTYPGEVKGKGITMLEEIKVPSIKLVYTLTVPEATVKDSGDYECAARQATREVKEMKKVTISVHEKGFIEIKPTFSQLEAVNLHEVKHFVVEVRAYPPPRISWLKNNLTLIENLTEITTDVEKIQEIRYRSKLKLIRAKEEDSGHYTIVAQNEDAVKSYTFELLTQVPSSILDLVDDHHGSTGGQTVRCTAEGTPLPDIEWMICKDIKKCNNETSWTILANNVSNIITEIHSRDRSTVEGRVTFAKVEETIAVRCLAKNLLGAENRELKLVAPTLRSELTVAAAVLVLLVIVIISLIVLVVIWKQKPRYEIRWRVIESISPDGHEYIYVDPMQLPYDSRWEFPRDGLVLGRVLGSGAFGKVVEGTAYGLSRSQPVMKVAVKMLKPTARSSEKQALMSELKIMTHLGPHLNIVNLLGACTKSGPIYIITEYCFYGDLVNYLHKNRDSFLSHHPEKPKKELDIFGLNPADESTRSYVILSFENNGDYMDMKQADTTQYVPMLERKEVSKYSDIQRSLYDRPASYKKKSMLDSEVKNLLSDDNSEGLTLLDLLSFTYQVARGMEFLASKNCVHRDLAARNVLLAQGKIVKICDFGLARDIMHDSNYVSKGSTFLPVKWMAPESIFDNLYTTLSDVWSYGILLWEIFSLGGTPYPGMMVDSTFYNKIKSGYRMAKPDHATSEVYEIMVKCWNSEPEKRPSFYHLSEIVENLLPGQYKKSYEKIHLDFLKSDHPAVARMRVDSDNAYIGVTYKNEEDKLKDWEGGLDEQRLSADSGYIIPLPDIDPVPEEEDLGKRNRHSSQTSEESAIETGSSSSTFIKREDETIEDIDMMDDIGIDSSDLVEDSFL

[12] = target: STK24 (human) (UniProt Q9Y6E0)
[13] = target: MAPKAPK3 (human) (UniProt Q16644)
MAPKAPK3 (human), sequence (Q16644 whole entry, looked up): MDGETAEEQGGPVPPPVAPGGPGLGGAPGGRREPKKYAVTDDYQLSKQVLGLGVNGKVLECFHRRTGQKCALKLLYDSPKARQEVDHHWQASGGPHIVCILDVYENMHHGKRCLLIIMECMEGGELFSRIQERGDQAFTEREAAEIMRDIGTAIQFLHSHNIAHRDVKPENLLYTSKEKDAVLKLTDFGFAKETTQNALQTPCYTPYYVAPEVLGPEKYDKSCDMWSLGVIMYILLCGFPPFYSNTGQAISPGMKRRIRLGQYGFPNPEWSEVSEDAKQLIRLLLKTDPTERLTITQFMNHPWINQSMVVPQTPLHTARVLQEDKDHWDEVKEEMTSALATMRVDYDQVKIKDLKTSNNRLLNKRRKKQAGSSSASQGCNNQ

[14] = target: STK16 (human) (UniProt O75716)
STK16 (human), sequence (O75716 whole entry, looked up): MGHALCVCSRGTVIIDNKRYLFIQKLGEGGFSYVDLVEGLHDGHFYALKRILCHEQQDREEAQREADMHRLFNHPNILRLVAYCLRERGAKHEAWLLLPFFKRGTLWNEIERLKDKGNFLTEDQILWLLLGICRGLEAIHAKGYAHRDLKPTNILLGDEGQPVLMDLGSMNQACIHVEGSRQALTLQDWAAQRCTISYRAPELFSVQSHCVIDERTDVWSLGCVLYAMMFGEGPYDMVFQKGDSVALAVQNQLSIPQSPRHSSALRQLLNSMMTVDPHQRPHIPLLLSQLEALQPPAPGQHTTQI

[15] = target: CDK9 CCNT1 (human) (UniProt P50750+O60563)
[16] = target: ABL1 (human) (UniProt P00519)
[17] = target: ULK2 (human) (UniProt Q8IYT8)
[18] = target: WNK1 (human) (UniProt Q9H4A3)
[19] = target: DDR2 (human) (UniProt Q16832)
[20] = system: TGFBR1 (human), P36897 [T204D]
[21] = target: STK33 (human) (UniProt Q9BYT3)
[22] = target: ZAP70 (human) (UniProt P43403)
ZAP70 (human), sequence (P43403 whole entry, looked up): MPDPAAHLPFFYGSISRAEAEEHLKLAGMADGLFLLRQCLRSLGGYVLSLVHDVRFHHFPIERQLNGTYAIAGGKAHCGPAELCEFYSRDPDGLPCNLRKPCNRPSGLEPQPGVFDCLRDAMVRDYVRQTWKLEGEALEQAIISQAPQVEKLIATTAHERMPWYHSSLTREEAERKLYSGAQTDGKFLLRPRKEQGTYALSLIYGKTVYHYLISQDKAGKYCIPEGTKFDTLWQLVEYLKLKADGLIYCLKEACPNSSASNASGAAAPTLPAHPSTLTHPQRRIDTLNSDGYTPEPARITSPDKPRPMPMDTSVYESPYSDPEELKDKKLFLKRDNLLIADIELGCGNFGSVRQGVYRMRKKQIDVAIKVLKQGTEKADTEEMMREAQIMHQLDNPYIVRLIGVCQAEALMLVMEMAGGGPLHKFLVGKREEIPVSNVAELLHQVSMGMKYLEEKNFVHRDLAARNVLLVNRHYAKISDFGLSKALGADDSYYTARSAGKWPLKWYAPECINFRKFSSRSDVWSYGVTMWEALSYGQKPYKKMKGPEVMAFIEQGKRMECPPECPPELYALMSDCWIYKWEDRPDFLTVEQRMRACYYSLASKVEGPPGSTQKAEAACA

[23] = target: TSSK1B (human) (UniProt Q9BXA7)
[24] = target: ULK1 (human) (UniProt O75385)
[25] = target: MAP4K3 (human) (UniProt Q8IVH8)
[26] = target: TLK1 (human) (UniProt Q9UKI8)
TLK1 (human), sequence (Q9UKI8 whole entry, looked up): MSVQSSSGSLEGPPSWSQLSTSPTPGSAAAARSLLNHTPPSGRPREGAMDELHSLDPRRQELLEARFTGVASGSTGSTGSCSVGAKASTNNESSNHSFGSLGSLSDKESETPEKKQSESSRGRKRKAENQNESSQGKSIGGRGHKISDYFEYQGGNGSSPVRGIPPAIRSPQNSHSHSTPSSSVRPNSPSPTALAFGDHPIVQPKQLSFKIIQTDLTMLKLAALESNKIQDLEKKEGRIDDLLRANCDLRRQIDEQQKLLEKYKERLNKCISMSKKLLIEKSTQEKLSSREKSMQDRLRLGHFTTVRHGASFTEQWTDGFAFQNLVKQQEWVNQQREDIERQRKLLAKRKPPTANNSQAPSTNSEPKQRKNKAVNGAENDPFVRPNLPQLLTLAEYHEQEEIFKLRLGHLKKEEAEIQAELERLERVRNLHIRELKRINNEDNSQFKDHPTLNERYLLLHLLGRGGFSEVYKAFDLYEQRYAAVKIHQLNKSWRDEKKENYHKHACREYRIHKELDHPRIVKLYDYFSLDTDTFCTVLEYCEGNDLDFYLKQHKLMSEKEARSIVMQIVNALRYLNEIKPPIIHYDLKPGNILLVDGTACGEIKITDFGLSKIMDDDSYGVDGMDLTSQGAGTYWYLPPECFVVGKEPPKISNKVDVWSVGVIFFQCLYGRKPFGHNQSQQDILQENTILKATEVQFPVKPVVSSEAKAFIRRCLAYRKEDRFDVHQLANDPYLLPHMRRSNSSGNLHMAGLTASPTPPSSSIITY

[27] = target: CSNK1G2 (human) (UniProt P78368)
[28] = target: MAP4K5 (human) (UniProt Q9Y4K4)
[29] = target: MAPK7 (human) (UniProt Q13164)
[30] = system: OXSR1 (human), O95747 [T185E]
[31] = target: EIF2AK3 (human) (UniProt Q9NZJ5)

TESK1 (human), sequence (Q15569 whole entry, looked up): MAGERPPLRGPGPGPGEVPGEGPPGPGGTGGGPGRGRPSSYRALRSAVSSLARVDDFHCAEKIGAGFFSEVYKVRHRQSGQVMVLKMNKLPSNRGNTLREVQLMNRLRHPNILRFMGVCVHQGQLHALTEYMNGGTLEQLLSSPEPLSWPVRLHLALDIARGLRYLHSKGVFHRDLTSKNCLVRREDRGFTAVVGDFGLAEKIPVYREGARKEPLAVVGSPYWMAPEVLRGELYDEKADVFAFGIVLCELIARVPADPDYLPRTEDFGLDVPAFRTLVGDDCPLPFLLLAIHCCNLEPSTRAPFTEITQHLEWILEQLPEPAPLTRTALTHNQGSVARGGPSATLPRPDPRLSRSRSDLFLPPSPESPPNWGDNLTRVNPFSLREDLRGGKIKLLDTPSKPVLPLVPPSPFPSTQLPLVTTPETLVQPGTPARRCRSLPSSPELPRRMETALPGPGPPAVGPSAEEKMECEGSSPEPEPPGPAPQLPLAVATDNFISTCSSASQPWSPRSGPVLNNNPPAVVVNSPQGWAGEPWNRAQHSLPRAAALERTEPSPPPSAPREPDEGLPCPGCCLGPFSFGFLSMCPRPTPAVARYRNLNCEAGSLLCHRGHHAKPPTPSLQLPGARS

`COc1cc(C(=O)N2CCOCC2)c(F)cc1Nc1ncc(C(F)(F)F)c(NC2CC2)n1` gave a residual activity ([1]; compound 1.0 µM) of 95%, a residual activity ([1]; compound 10.0 µM) of 93% and a residual activity ([2]; compound 1.0 µM) of 82%. For the same compound, the residual activity ([2]; compound 10.0 µM) was 44%, the residual activity ([3]; compound 1.0 µM) was 53% and the residual activity ([3]; compound 10.0 µM) was 22%. For the same compound, the residual activity ([4]; compound 1.0 µM) was 102%, the residual activity ([4]; compound 10.0 µM) was 118% and the residual activity ([5]; compound 1.0 µM) was 85%. The residual activity ([5]; compound 10.0 µM) was 91%, the residual activity ([6]; compound 1.0 µM) was 98% and the residual activity ([6]; compound 10.0 µM) was 94%. The residual activity [7] was 70%, the residual activity ([8]; compound 1.0 µM) was 84% and the residual activity ([8]; compound 10.0 µM) was 34%. The residual activity ([9]; compound 1.0 µM) was 96%, the residual activity ([9]; compound 10.0 µM) was 93% and the residual activity ([10]; compound 1.0 µM) was 91%. The residual activity ([10]; compound 10.0 µM) was 97%, the residual activity ([11]; compound 1.0 µM) was 81% and the residual activity ([11]; compound 10.0 µM) was 76%. It also gave a residual activity ([12]; compound 1.0 µM) of 96%, a residual activity ([12]; compound 10.0 µM) of 85% and a residual activity ([13]; compound 1.0 µM) of 108%. It also gave a residual activity ([13]; compound 10.0 µM) of 124%, a residual activity ([14]; compound 1.0 µM) of 115% and a residual activity ([14]; compound 10.0 µM) of 101%. It also gave a residual activity ([15]; compound 1.0 µM) of 87%, a residual activity ([15]; compound 10.0 µM) of 90% and a residual activity ([16]; compound 1.0 µM) of 106%. For the same compound, the residual activity ([16]; compound 10.0 µM) was 97%, the residual activity ([17]; compound 1.0 µM) was 88% and the residual activity ([17]; compound 10.0 µM) was 70%. The residual activity ([18]; compound 1.0 µM) was 97%, the residual activity ([18]; compound 10.0 µM) was 106% and the residual activity ([19]; compound 1.0 µM) was 105%. For the same compound, the residual activity ([19]; compound 10.0 µM) was 100%, the residual activity ([20]; compound 1.0 µM) was 99% and the residual activity ([20]; compound 10.0 µM) was 103%. It also gave a residual activity ([21]; compound 1.0 µM) of 47%, a residual activity ([21]; compound 10.0 µM) of 30% and a residual activity ([22]; compound 1.0 µM) of 88%. The residual activity ([22]; compound 10.0 µM) was 86%, the residual activity ([23]; compound 1.0 µM) was 31% and the residual activity ([23]; compound 10.0 µM) was 7%. It also gave a residual activity ([24]; compound 1.0 µM) of 98%, a residual activity ([24]; compound 10.0 µM) of 56% and a residual activity ([25]; compound 1.0 µM) of 76%. For the same compound, the residual activity ([25]; compound 10.0 µM) was 36%, the residual activity ([26]; compound 1.0 µM) was 106% and the residual activity ([26]; compound 10.0 µM) was 96%. The residual activity ([27]; compound 1.0 µM) was 90%, the residual activity ([27]; compound 10.0 µM) was 89% and the residual activity ([28]; compound 1.0 µM) was 107%. For the same compound, the residual activity ([28]; compound 10.0 µM) was 91%, the residual activity ([29]; compound 1.0 µM) was 66% and the residual activity ([29]; compound 10.0 µM) was 42%. The residual activity ([30]; compound 1.0 µM) was 95%, the residual activity ([30]; compound 10.0 µM) was 51% and the residual activity ([31]; compound 1.0 µM) was 87%. For the same compound, the residual activity ([31]; compound 10.0 µM) was 82%.

— the kinase profiling compilation of Christmann-Franck et al. (2016)
